Test results from PubChem BioAssay AID540269 (Sanford-Burnham Center for Chemical Genomics, 2011).
Active and inactive are the calls of the source. How the calls were made is not given here.

What follows are compounds tested against glucose-6-phosphate dehydrogenase-6-phosphogluconolactonase (Plasmodium falciparum 3D7) (assay: inhibition of P. falciparum G6PD activity – biochemical, kinetic NADPH detection, orthogonal assay, dose response (AID 540269)). Conditions: purified PfG6PD-6PGL.

| SMILES | IC50 |
| --- | --- |
| CCNc1ccccc1CP(=O)(c1ccccc1)c1ccccc1O (stereo unspecified) | > 80 µM (inactive) |
| CC(C)(C)c1ccc(O)c(O)c1 | 48.6 µM |
| C=CCSc1nnc(NC(=O)c2ccc(Cl)nc2)s1 | > 80 µM (inactive) |
| Cc1no[n+]([O-])c1COc1cccc(/C=N/Nc2nncn2N)c1 | 30.5 µM |
| COc1ccc(CCn2c(NN=C3CCCCC3)nc3c2c(=O)[nH]c(=O)n3C)cc1 | > 80 µM (inactive) |
| Cc1cc(C)nc(SSc2nc(C)cc(C)n2)n1 | 68 µM |
| O=C(CNC(=O)c1ccco1)OCC(=O)c1ccc([N+](=O)[O-])cc1 | 50.9 µM |
| CN=c1scc(C)n1/N=C/c1ccc(O)c(O)c1O | 24.8 µM |
| COC(=O)CCC(=O)OC1(C)C(=O)C2=CN(c3ccc(OC)cc3)C(c3ccc(OC)cc3)=CC2=C(Br)C1=O (stereo unspecified) | > 80 µM (inactive) |
| COc1ccc2ccccc2c1C1CC(=O)N2CN(C3CCCCC3)CSC2=C1C#N (stereo unspecified) | > 80 µM (inactive) |
| Cc1nc2c(o1)C(=O)c1ccccc1C2=Nc1ccccc1 | > 80 µM (inactive) |
| O=C(Cc1ccccc1)NCC(=O)OCC(=O)c1ccc([N+](=O)[O-])cc1 | 57.9 µM |
| COc1ccc(C(=O)Nc2sc3c(c2C(=O)O)CC(C)(C)OC3)cc1 | 40.6 µM |
| Cc1ccc(S(=O)(=O)N(C)C)cc1NC(=O)CSc1nc2ncc(Cl)cc2[nH]1 | > 80 µM (inactive) |
| CCN(CC)c1ccc(NC(=O)c2cccc(C)c2)cc1S(=O)(=O)Nc1ccccc1OC | 31.3 µM |
| CCOC(=O)c1cnc2ccc(C)cc2c1Sc1ccccc1C(=O)OC | > 80 µM (inactive) |
| CN(C)C=Nc1ccc2nc3c(cc2c1)[nH]c1ccccc13 | > 80 µM (inactive) |
| CCN1CCN(C(=S)c2ccc(O)cc2)CC1 | > 80 µM (inactive) |
| O=c1c2cc([N+](=O)[O-])ccc2sn1-c1ccccc1 | 15.9 µM |
| C[c-]1[c-](C)[c-](C)[c-](C)[c-]1C.[Fe].c1cc2nccc(N3CCCC3)[c-]2c1 (stereo unspecified) | 52.9 µM |
| CNCc1ccccc1Sc1cc(O)ccc1O | 54.5 µM |
| O=C(COc1cccc2ccccc12)Nc1ccc(Cl)cc1C(=O)O | 33.7 µM |
| CCN(CC)C(=S)SSC(=S)N(CC)CC | > 80 µM (inactive) |
| CC(=O)Nc1cc([N+](=O)[O-])ccc1OCc1ccccc1 | > 80 µM (inactive) |
| CC1CCc2[nH]c3ccc(C(=O)N(C)CC(=O)Nc4ccccc4C(F)(F)F)cc3c2C1 (stereo unspecified) | > 80 µM (inactive) |
| Cc1noc(C(=O)Nc2sc3c(c2C#N)CCC3)c1Cl | > 80 µM (inactive) |

| SMILES | IC50 |
| --- | --- |
| Cc1ccc(N2CC(C(=O)OCC(=O)c3ccc([N+](=O)[O-])cc3)CC2=O)cc1 (stereo unspecified) | > 80 µM (inactive) |
| O=C(O)c1cccc(N2C(=O)C=CC2=O)c1 | 55.2 µM |
| Cc1cc(N=NC(=O)c2ccccc2O)c2ccccc2c1O | > 80 µM (inactive) |
| Cn1cc(S(=O)(=O)CC(=O)N2CCc3ccccc32)c2ccccc21 | > 80 µM (inactive) |
| O=C(Nc1nnc(S(=O)(=O)N2CCOCC2)s1)c1cccc(Br)c1 | 60.2 µM |
| COc1cc(CNc2ccc(N3CCCC3)cc2)ccc1OCc1ccccc1F | > 80 µM (inactive) |
| COc1cccc(C(=O)Nc2nnc(S(=O)(=O)N(C)Cc3ccccc3)s2)c1 | 18.6 µM |
| Cc1c(C(=O)N(Cc2ccccc2Cl)C2CCS(=O)(=O)C2)oc2ccccc12 (stereo unspecified) | > 80 µM (inactive) |
| COc1cccc(/C=N/NC(=O)c2c(C)nc3ccc(Br)cn23)c1 | 52.3 µM |
| CC(=O)Nc1ccc2c(=O)n(-c3ccccc3)sc2c1 | 15.6 µM |
| COc1cc(Sc2ccc(C)cc2)c(OC)cc1N | > 80 µM (inactive) |
| O=C(COC(=O)c1ccc2c(c1[N+](=O)[O-])C(=O)c1ccccc1C2=O)NC1CC1 | > 80 µM (inactive) |
| COc1cc(NCc2ccccc2O)c2ncccc2c1 | 35 µM |
| Cc1cc(SCC(=O)N/N=C/c2ccco2)nc2ccccc12 | > 80 µM (inactive) |
| COC1=C(N)C(=O)c2nc(C)ccc2C1=O | > 80 µM (inactive) |
| COCCn1nnnc1C(c1cc2cc(OC)c(OC)cc2[nH]c1=O)N1CCN(c2ccc(O)cc2)CC1 (stereo unspecified) | 30.3 µM |
| COc1ccc(NS(=O)(=O)c2ccc(N3CCCC3)c(NC(=S)Nc3cccc(C)c3C)c2)cc1 | > 80 µM (inactive) |
| Cc1ccc(NC2=C(NC(=O)c3ccccc3)C(=O)c3ccccc3C2=O)cc1Cl | > 80 µM (inactive) |
| COc1ccc(CCn2c(NN)nc3c2c(=O)[nH]c(=O)n3C)cc1 | 22.4 µM |
| Cc1cc(C)c2c(=O)n(CC(=O)Nc3ccc(Br)c(C)c3)sc2n1 | 58.5 µM |
| O=c1c2ccccc2sn1-c1cccc(Cl)c1 | 14.2 µM |
| COc1cc(-c2cc(OC)c(O)c(OC)c2)cc(OC)c1O | > 80 µM (inactive) |
| O=C(CNc1ccc2c(c1)OCO2)N/N=C\c1cn(Cc2ccccc2)c2ccccc12 | > 80 µM (inactive) |
| C=CCc1c(C)[nH]c(=S)c(C#N)c1C | > 80 µM (inactive) |
| CCN1CCN(C(=S)c2ccc(Cl)c(Cl)c2)CC1 | > 80 µM (inactive) |
| C[n+]1c(-c2ccccc2)cc2c(=Cc3ccc([N+](=O)[O-])cc3)c3ccccc3n21 | 51.5 µM |

| SMILES | IC50 |
| --- | --- |
| N#Cc1c(C#N)c(SSc2c(C#N)c(C#N)c(N)n2-c2ccccc2)n(-c2ccccc2)c1N | > 80 µM (inactive) |
| CS(=O)(=O)c1ccc(N)c(SSc2cc(S(C)(=O)=O)ccc2N)c1 | 15.2 µM |
| NC(=O)N/N=C/c1ccc(-n2nncc2-c2ccc(Cl)cc2)cc1 | > 80 µM (inactive) |
| CCOc1cc(NCc2ccccc2)c2ncn(C(C)C)c2c1 | > 80 µM (inactive) |
| Cc1ccc(-c2nn(C)c(=O)c3ccccc23)cc1CNC(=O)/C=C/c1ccccc1 | 68.6 µM |
| Cc1cc(C)c2c(=O)n(CC(=O)Nc3ccc(Cl)cc3)sc2n1 | > 80 µM (inactive) |
| CCc1ccc(OCC(=O)N/N=C/c2cc([N+](=O)[O-])ccc2N2CCOCC2)cc1 | > 80 µM (inactive) |
| O=C(O)c1cc(N2C(=O)C=CC2=O)cc(N2C(=O)C=CC2=O)c1 | 19.6 µM |
| C/C(Cn1nnc([N+](=O)[O-])n1)=N\NC(=O)c1ccc(O)cc1 | > 80 µM (inactive) |
| COc1ccc(C(=O)Nc2cc(Cl)ccc2C(=O)O)cc1 | 17.7 µM |
| COc1ccc(C(=O)ON=C2C=C(C)C(=O)C(C)=C2)cc1 | > 80 µM (inactive) |
| CCS(=O)(=O)N1CCN(c2ccc([N+](=O)[O-])c(NC(C)c3ccccc3)c2)CC1 (stereo unspecified) | > 80 µM (inactive) |
| Cc1cccc(C(=O)Nc2sc3c(c2C(=O)O)CCCC3)c1 | 32.9 µM |
| [O-]/[N+](=C\c1ccco1)c1ccc(Cl)cc1 | 76.7 µM |
| Oc1ccc(/C=N/N=C(c2ccccc2)c2ccccc2)c(O)c1O | 54.6 µM |
| COc1cccc(C(=O)Nc2nnc(C(C)C)s2)c1 | 21.4 µM |
| O=C1/C(=C\c2ccc([N+](=O)[O-])cc2)CS(=O)(=O)C/C1=C/c1ccc([N+](=O)[O-])cc1 | > 80 µM (inactive) |
| Cc1ccsc1/C=N/NC(=O)c1cccc(S(=O)(=O)Nc2ccccc2Cl)c1 | > 80 µM (inactive) |
| ClC(Cl)(c1nnnn1-c1ccccc1)c1nnnn1-c1ccccc1 | 61.2 µM |
| O=c1c2cc(C(F)(F)F)ccc2sn1-c1ccccc1 | 20.3 µM |
| O=C(CN1CCN(c2ccc(O)cc2)CC1)Nc1cc(S(=O)(=O)N2CCOCC2)ccc1Cl | > 80 µM (inactive) |
| O=C(CCC(=O)Nc1ccccc1Cl)N/N=C/c1ccccc1 | > 80 µM (inactive) |
| CCOc1ccc(NC(=O)Cn2sc3nc(C)cc(C)c3c2=O)cc1 | 37.5 µM |
| COc1cc(-c2nnc3n2N=C(c2ccccc2)CS3)cc(OC)c1OC | > 80 µM (inactive) |
